# Test results taken from patent US20240218022A1, “ANTI-VISTA MACROCYCLIC PEPTIDES AND COMPOSITIONS” (BRISTOL-MYERS SQUIBB COMPANY, priority 2022, published 2024).
# Read-outs that look alike come from different tables or passages of the source. Starred links: 1 amine or outer side, 2 acyl side, 3 side chain; linkers in the order of their positions; H or OH if unused. Positions of bridges follow the written chain, without caps; N, C: chain ends. Non-standard residues stand in square brackets, D forms with d. Residues, ends and D or L forms follow the SMILES beside them. ξ: configuration not given here. Phe(3-Me) = Cc1cccc(C[C@H](N)C(=O)O)c1; Phe(4-Me) = Cc1ccc(C[C@H](N)C(=O)O)cc1; γGlu = O=C(O)[C@H](CCC(=O)[*:2])N[*:1]; βAsp = O=C(O)[C@H](CC(=O)[*:2])N[*:1]; NMeThr(3ξ) = CN[C@H](C(=O)O)C(C)O; NMeL = CN[C@@H](CC(C)C)C(=O)O; Ahp(2) = CCCCC[C@H](N)C(=O)O; NMeNle = CCCC[C@H](NC)C(=O)O; Tle = CC(C)(C)[C@H](N)C(=O)O; NMeV = CN[C@H](C(=O)O)C(C)C; NMeS = CN[C@@H](CO)C(=O)O; NHexGly = CCCCCCNCC(=O)O; Nle = CCCC[C@H](N)C(=O)O; Aun = NCCCCCCCCCCC(=O)O; Dab = NCC[C@H](N)C(=O)O; Nva = CCC[C@H](N)C(=O)O; AEEA = NCCOCCOCC(=O)O
# Target: T1, mouse VISTA (mVISTA) (Mus musculus, UniProt Q9D659)
# T1 construct: expressed in transfected cells; host or cells: Human embryonic kidney 293T cells
# T1 sequence (Q9D659 33-308): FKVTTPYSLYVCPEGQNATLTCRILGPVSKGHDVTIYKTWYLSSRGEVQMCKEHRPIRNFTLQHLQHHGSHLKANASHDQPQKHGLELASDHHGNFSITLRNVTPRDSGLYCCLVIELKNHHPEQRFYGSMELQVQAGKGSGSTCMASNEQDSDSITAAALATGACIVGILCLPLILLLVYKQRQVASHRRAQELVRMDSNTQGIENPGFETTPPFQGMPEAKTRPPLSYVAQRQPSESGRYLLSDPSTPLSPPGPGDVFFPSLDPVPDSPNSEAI
# Experiment: Cell-Based Binding High-Content Assay For mVISTA (HC CBA mVISTA)
# Outline: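 293T cells expressing mouse VISTA, with compounds added either after seeding ("no wash") or before seeding and then washed out after 1 h. Biotinylated peptide 2 nM for 30 min at room temperature, then detection with Alexa 647–streptavidin. After fixation with Hoechst stain, plates were high-content imaged; IC50 from four-parameter logistic fit.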
Structure (SMILES),IC50 (read-out: HC CBA mVISTA IC50) [nM],further results
CCCCCCN1CC(=O)N[C@@H](Cc2ccc(O)cc2)C(=O)N[C@@H](C)C(=O)N[C@@H](CC(N)=O)C(=O)N[C@@H](CCCNC(=N)N)C(=O)N(C)[C@@H](CCCC)C(=O)N[C@@H](CCCCC)C(=O)N2CCC[C@H]2C(=O)N[C@@H](C(C)(C)C)C(=O)N[C@@H](CC(=O)O)C(=O)N[C@H](C(=O)N[C@@H](CC(=O)NCCOCCOCC(=O)N[C@@H](CC(=O)O)C(=O)NCCOCCOCC(=O)NCCCCCCCCCCC(=O)O)C(=O)O)CSCC(=O)N[C@@H](Cc2ccccc2)C(=O)N[C@@H](Cc2ccc(O)cc2)C(=O)N[C@@H](CC(=O)O)C1=O [compound 2096] ({CH2CO}-FYD[NHexGly]YANR[NMeNle][Ahp(2)]P[Tle]DC[βAsp][AEEA]D[AEEA][Aun]-OH; thioether N-14),–,"IC50 (cell-based binding high-content assay, mVISTA, read-out: HC CBA miPrISTA IC50): 20 nM"
CCCCCCN1CC(=O)N[C@@H](Cc2ccc(O)cc2)C(=O)N[C@@H](CCCC)C(=O)N[C@@H](CC(N)=O)C(=O)N[C@@H](CCCNC(=N)N)C(=O)N(C)[C@@H](CC(C)C)C(=O)N[C@@H](CCCCC)C(=O)N2CCC[C@H]2C(=O)N[C@@H](C(C)(C)C)C(=O)N[C@@H](CO)C(=O)N[C@H](C(=O)NCCOCCOCC(=O)N[C@@H](CCC(=O)NCCOCCOCC(=O)NCCCCCCCCCCC(=O)O)C(=O)O)CSCC(=O)N[C@@H](Cc2ccccc2)C(=O)N[C@@H](Cc2c[nH]c3ccccc23)C(=O)N[C@@H](CC(=O)O)C1=O [compound 2229] ({CH2CO}-FWD[NHexGly]Y[Nle]NR[NMeL][Ahp(2)]P[Tle]SC[AEEA][γGlu][AEEA][Aun]-OH; thioether N-14),33.1,–
CCCCCCN1CC(=O)N[C@@H](Cc2ccc(O)cc2)C(=O)N[C@@H](CCCC)C(=O)NCC(=O)N[C@@H](CCCNC(=N)N)C(=O)N[C@@H](CC(C)C)C(=O)N[C@@H](CCCCC)C(=O)N2CCC[C@H]2C(=O)N[C@@H](C(C)C)C(=O)N[C@@H](CC(=O)O)C(=O)N[C@H](C(=O)NCC(=O)O)CSCC(=O)N[C@@H](Cc2ccc(O)cc2)C(=O)N[C@@H](Cc2ccccc2)C(=O)N[C@@H](CC(=O)O)C1=O [compound 1472] ({CH2CO}-YFD[NHexGly]Y[Nle]GRL[Ahp(2)]PVDCG-OH; thioether N-14),–,"IC50 (the 20th table, scaffold drawing 23, read-out: HC CBA mVISTA IC50): 15.5 nM"
CCCCCCN1CC(=O)N[C@@H](Cc2ccc(O)cc2)C(=O)N[C@@H](CCC)C(=O)N[C@@H](CC(N)=O)C(=O)N[C@@H](CCCNC(=N)N)C(=O)N(C)[C@@H](CCCC)C(=O)N[C@@H](CCCCC)C(=O)N2CCC[C@H]2C(=O)N[C@@H](C(C)(C)C)C(=O)N[C@@H](CO)C(=O)N[C@H](C(=O)NCCOCCOCC(=O)N[C@@H](CCC(=O)NCCOCCOCC(=O)NCCCCCCCCCCC(=O)O)C(=O)O)CSCC(=O)N[C@@H](Cc2ccccc2)C(=O)N[C@@H](Cc2c[nH]c3ccccc23)C(=O)N[C@@H](CC(=O)O)C1=O [compound 2258] ({CH2CO}-FWD[NHexGly]Y[Nva]NR[NMeNle][Ahp(2)]P[Tle]SC[AEEA][γGlu][AEEA][Aun]-OH; thioether N-14),36.9,–
CCCCCCN1CC(=O)N[C@@H](Cc2ccc(O)cc2)C(=O)N[C@@H](CC(C)C)C(=O)N[C@@H](CC(N)=O)C(=O)N[C@@H](CCCNC(=N)N)C(=O)N(C)[C@@H](CCCC)C(=O)N[C@@H](CCCCC)C(=O)N2CCC[C@H]2C(=O)N[C@@H](C(C)(C)C)C(=O)N[C@@H](CC(=O)O)C(=O)N[C@H](C(=O)N[C@@H](CC(=O)NCCOCCOCC(=O)N[C@@H](CCN)C(=O)NCCOCCOCC(=O)NCCCCCCCCCCC(=O)O)C(=O)O)CSCC(=O)N[C@@H](Cc2ccccc2)C(=O)N[C@@H](Cc2ccc(O)cc2)C(=O)N[C@@H](CC(=O)O)C1=O [compound 2329] ({CH2CO}-FYD[NHexGly]YLNR[NMeNle][Ahp(2)]P[Tle]DC[βAsp][AEEA][Dab][AEEA][Aun]-OH; thioether N-14),–,"IC50 (cell-based binding high-content assay, read-out: HC CBA mVISTA IC50): 22.4 nM"
CCCCCCN1CC(=O)N[C@@H](Cc2ccc(O)cc2)C(=O)N[C@@H](CC(C)C)C(=O)N[C@@H](CC(N)=O)C(=O)N[C@@H](CCCNC(=N)N)C(=O)N(C)[C@@H](CO)C(=O)N[C@@H](CCCCC)C(=O)N2CCC[C@H]2C(=O)N[C@@H](C(C)(C)C)C(=O)N[C@@H](CC(=O)O)C(=O)N[C@H](C(=O)NCCOCCOCC(=O)N[C@@H](CCC(=O)NCCOCCOCC(=O)NCCCCCCCCCCC(=O)O)C(=O)O)CSCC(=O)N[C@@H](Cc2ccccc2)C(=O)N[C@@H](Cc2c[nH]c3ccccc23)C(=O)N[C@@H](CC(=O)O)C1=O [compound 2264] ({CH2CO}-FWD[NHexGly]YLNR[NMeS][Ahp(2)]P[Tle]DC[AEEA][γGlu][AEEA][Aun]-OH; thioether N-14),24.7,–
CCCCCCN1CC(=O)N[C@@H](Cc2ccc(O)cc2)C(=O)N[C@@H](CCCC)C(=O)N[C@@H](CC(N)=O)C(=O)N[C@@H](CCCNC(=N)N)C(=O)N[C@@H](CC(C)C)C(=O)N[C@@H](CCCCC)C(=O)N2CCC[C@H]2C(=O)N[C@@H](C(C)C)C(=O)N[C@@H](CC(=O)O)C(=O)N[C@H](C(=O)NCC(=O)NCCOCCOCC(=O)N[C@@H](CC(=O)O)C(=O)NCCOCCOCC(=O)NCCCCCCCCCCC(=O)O)CSCC(=O)N[C@@H](Cc2cccc(C)c2)C(=O)N[C@@H](Cc2c[nH]c3ccccc23)C(=O)N[C@@H](CC(=O)O)C1=O [compound 2008] ({CH2CO}-[Phe(3-Me)]WD[NHexGly]Y[Nle]NRL[Ahp(2)]PVDCG[AEEA]D[AEEA][Aun]-OH; thioether N-14),–,"IC50 (cell-based binding high-content assay, mVISTA, read-out: HC CBA miPr ISTA IC50): 16.1 nM"
CCCCCCN1CC(=O)N[C@@H](Cc2ccc(O)cc2)C(=O)N[C@@H](CC(C)C)C(=O)N[C@@H](CC(N)=O)C(=O)N[C@@H](CCCNC(=N)N)C(=O)N(C)[C@@H](CCCC)C(=O)N[C@@H](CCCCC)C(=O)N2CCC[C@H]2C(=O)N[C@@H](C(C)C)C(=O)N[C@@H](CO)C(=O)N[C@H](C(=O)NCC(N)=O)CSCC(=O)N[C@@H](Cc2ccc(C)cc2)C(=O)N[C@@H](Cc2ccc(O)cc2)C(=O)N[C@@H](CC(=O)O)C1=O [compound 1214] ({CH2CO}-[Phe(4-Me)]YD[NHexGly]YLNR[NMeNle][Ahp(2)]PVSCG-NH2; thioether N-14),23.3,–
CCCCCCN1CC(=O)N[C@@H](Cc2ccc(O)cc2)C(=O)N[C@@H](CC(C)C)C(=O)N[C@@H](CC(N)=O)C(=O)N[C@@H](CCCNC(=N)N)C(=O)N(C)[C@@H](C(C)C)C(=O)N[C@@H](CCCCC)C(=O)N2CCC[C@H]2C(=O)N[C@@H](C(C)(C)C)C(=O)N[C@@H](CC(=O)O)C(=O)N[C@H](C(=O)NCCOCCOCC(=O)N[C@@H](CCC(=O)NCCOCCOCC(=O)NCCCCCCCCCCC(=O)O)C(=O)O)CSCC(=O)N[C@@H](Cc2ccccc2)C(=O)N[C@@H](Cc2c[nH]c3ccccc23)C(=O)N[C@@H](CC(=O)O)C1=O [compound 2276] ({CH2CO}-FWD[NHexGly]YLNR[NMeV][Ahp(2)]P[Tle]DC[AEEA][γGlu][AEEA][Aun]-OH; thioether N-14),30,–
CCCCCCN1CC(=O)N[C@@H](Cc2ccc(O)cc2)C(=O)N[C@@H](CC(C)C)C(=O)N[C@@H](CC(N)=O)C(=O)N[C@@H](CCCNC(=N)N)C(=O)N(C)[C@@H](C(C)O)C(=O)N[C@@H](CCCCC)C(=O)N2CCC[C@H]2C(=O)N[C@@H](C(C)(C)C)C(=O)N[C@@H](CC(=O)O)C(=O)N[C@H](C(=O)NCCOCCOCC(=O)N[C@@H](CCC(=O)NCCOCCOCC(=O)NCCCCCCCCCCC(=O)O)C(=O)O)CSCC(=O)N[C@@H](Cc2ccccc2)C(=O)N[C@@H](Cc2ccc(O)cc2)C(=O)N[C@@H](CC(=O)O)C1=O (stereo partly shown) [compound 2275] ({CH2CO}-FYD[NHexGly]YLNR[NMeThr(3ξ)][Ahp(2)]P[Tle]DC[AEEA][γGlu][AEEA][Aun]-OH; thioether N-14),31.8,–
